The source of these data is US11648254B2 (Kumquat Biosciences Inc., priority 2021, dated 2023).

Experiment [1] has as its target SOS1 (Homo sapiens (Human), UniProt Q07889). Nature of the experiment: Ras-SOS interaction assay (HTRF). The experiment is classed as biochemical. (In general: TR-FRET usually uses a lanthanide donor and a delayed reading to cut background.)
In experiment [2] the test system is NCI-H1975 cells (EGFR T790M L858R). As to the kind of experiment: EGFR-SOS cellular inhibition assay (CellTiter-Glo, 3D). The experiment is classed as cell-based. To be noted: Homo sapiens.
Experiment [3] concerns MIA PaCa-2 cells (K-Ras G12C). As to the kind of experiment: Ras-SOS cellular growth inhibition assay (CellTiter-Glo, 3D). The experiment is classed as cell-based. The following applies: Homo sapiens. Here is the method: MIA PaCa-2 (ATCC CRL-1420) and NCI-H1792 (ATCC CRL-5895) cell lines comprise a G12C mutation can be used to assess Ras cellular signaling in vitro, e.g., in response to a subject compound of the present disclosure. […] Cell culture medium (comprising, for example, MIA PaCa-2 cells) is prepared with DMEM/Ham's F12 (e.g., with stable Glutamine, 10% FCS, and 2.5% Horse Serum. NCI-H1792 culture medium is prepared with RPMI 1640 (e.g., with stable Glutamine) and 10% FCS. A CellTiter-Glo (CTG) luminescent based assay (Promega) is used to assess growth of the cells, as a measurement of the ability of the compounds herein to inhibit Ras signaling in the cells. The cells (e.g., 800-1200 per well) are seeded in their respective culture medium in standard tissue culture-treated ultra-low attachment surface 96-well format plates (Corning Costar #3474). The day after plating, cells are treated with a dilution series (e.g., a 9 point 3-fold dilution series) of the compounds herein (e.g., approximately 125 μl final volume per well). Cell viability can be monitored (e.g., approximately 5 days later) according to the manufacturer's recommended instructions, where the CellTiter-Glo reagent is added (e.g., approximately 65 μl), vigorously mixed, covered, and placed on a plate shaker (e.g., approximately for 20 min) to ensure sufficient cell lysis prior to assessment of luminescent signal. The IC50 values are determined using the four-parameter fit. The resulting IC50 value is a measurement of the ability of the compounds herein to reduce cell growth of Ras-driven cells as representative tumor cells.
In general terms: Cellular ATP, detected with luciferase, serves as a proxy for viable cell number.

Setting [4] is: K-RasG13D utilized, read-out: IC50 inhibition of SOS.
Where [5] appears, read: K-RasG13D, read-out: IC50 value against SOS1.
Setting [6] is: 120 h, NCI-H1975, 3D proliferation, about 5 days, read-out: Bio-Cell-Prolif-3D (H1975 IC50).
Setting [7] is: NCI-H1975, EGFR T790M L858R, read-out: IC50 in inhibiting growth of NCI-H1975 cell line.
[8] abbreviates: MIA PaCa-2, 120 h, MIA PaCa-2, 3D proliferation, about 5 days, read-out: Bio-Cell-Prolif-3D (MiaPaca2 IC50).
The mark [9] stands for this setting: MIA PaCa-2, MIA PaCa-2, read-out: IC50 in inhibiting MIA PaCa-2 cell growth.

Read-outs that look alike come from different tables or passages of the source.

Sequence of SOS1 (Q07889 564-1049): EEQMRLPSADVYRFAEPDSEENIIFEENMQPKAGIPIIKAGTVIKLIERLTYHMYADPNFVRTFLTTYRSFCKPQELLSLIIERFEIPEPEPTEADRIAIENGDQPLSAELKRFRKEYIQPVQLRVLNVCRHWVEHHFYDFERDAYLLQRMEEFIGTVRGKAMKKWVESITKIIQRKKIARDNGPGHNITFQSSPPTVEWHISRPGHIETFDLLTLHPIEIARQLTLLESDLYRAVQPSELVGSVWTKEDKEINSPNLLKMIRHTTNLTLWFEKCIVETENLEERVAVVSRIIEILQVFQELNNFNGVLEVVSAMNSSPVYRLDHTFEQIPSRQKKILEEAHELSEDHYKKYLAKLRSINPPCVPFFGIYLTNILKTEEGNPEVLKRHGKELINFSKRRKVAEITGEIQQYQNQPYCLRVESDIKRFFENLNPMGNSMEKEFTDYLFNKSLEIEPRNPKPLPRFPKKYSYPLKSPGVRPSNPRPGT

For the compound `COc1nc2nc(C)nc(N[C@H](C)c3cccc(C(F)(F)C4CCN(C(C)C)CC4)c3F)c2cc1C1CCS(=O)(=O)CC1` [Compound 379, (R)-4-(4-((1-(3-(difluoro(1-isopropylpiperidin-4-yl)methyl)-2-fluorophenyl)ethyl)amino)-7-methoxy-2-methylpyrido[2,3-d]pyrimidin-6-yl)tetrahydro-2H-thiopyran 1,1-dioxide], the half-maximal inhibitory concentration (IC50) is less than 100 nM in experiment [1] (setting [4]); less than 50 nM in experiment [1] (setting [5]); no more than 1000 nM in experiment [2] (setting [6]); less than 500 nM in experiment [2] (setting [7]); no more than 1000 nM in experiment [3] (setting [8]); less than 500 nM in experiment [3] (setting [9]).

As for `Cc1nc(N[C@H](C)c2cccc(C(F)F)c2F)c2cc(C3CCN(C)CC3)c(OC3CN(C)C3)nc2n1` [Compound 252, (R)-N-(1-(3-(difluoromethyl)-2-fluorophenyl)ethyl)-2-methyl-7-((1-methylazetidin-3-yl)oxy)-6-(1-methylpiperidin-4-yl)pyrido[2,3-d]pyrimidin-4-amine], the IC50 in experiment [1] (setting [4]) was less than 100 nM; in experiment [1] (setting [5]) it was less than 50 nM; in experiment [2] (setting [6]) it was no more than 1000 nM; in experiment [3] (setting [8]), 1000 to 10000 nM.

As to `Cc1c([C@@H](C)Nc2ncnc3nc(Cl)c(N4CCN(C(C)C)CC4)cc23)cccc1C(F)(F)F` [Compound 395, (R)-7-chloro-6-(4-isopropylpiperazin-1-yl)-N-(1-(2-methyl-3-(trifluoromethyl)phenyl)ethyl)pyrido [2,3-d]pyrimidin-4-amine], the half-maximal inhibitory concentration (IC50) in experiment [1] (setting [4]) is less than 100 nM; in experiment [1] (setting [5]), less than 50 nM; in experiment [2] (setting [6]) it was no more than 1000 nM; in experiment [2] (setting [7]), less than 500 nM; in experiment [3] (setting [8]), no more than 1000 nM; in experiment [3] (setting [9]), less than 500 nM.

Consider `COc1nc2nc(C)nc(N[C@H](C)c3cccc(C(F)(F)CCC4CN(C)C4)c3F)c2cc1C1(C#N)CC1` [Compound 177, (R)-1-(4-((1-(3-(1,1-difluoro-3-(1-methylazetidin-3-yl)propyl)-2-fluorophenyl)ethyl)amino)-7-methoxy-2-methylpyrido[2,3-d]pyrimidin-6-yl)cyclopropane-1-carbonitrile], for which the IC50 was less than 100 nM in experiment [1] (setting [4]); less than 50 nM in experiment [1] (setting [5]); no more than 1000 nM in experiment [2] (setting [6]); less than 500 nM in experiment [2] (setting [7]); no more than 1000 nM in experiment [3] (setting [8]); less than 500 nM in experiment [3] (setting [9]).

In the case of `COc1nc2ncnc(N[C@H](C)c3cccc(CC(F)F)c3F)c2cc1C1CCS(=O)(=O)CC1` [Compound 152, (R)-4-(4-((1-(3-(2,2-difluoroethyl)-2-fluorophenyl)ethyl)amino)-7-methoxypyrido[2,3-d]pyrimidin-6-yl)tetrahydro-2H-thiopyran 1,1-dioxide], the half-inhibitory concentration (IC50) in experiment [1] (setting [4]) was less than 100 nM; in experiment [1] (setting [5]), less than 50 nM; in experiment [2] (setting [6]) it was no more than 1000 nM; in experiment [3] (setting [8]), no more than 1000 nM.

On to `COc1nc2nc(C)nc(N[C@H](C)c3cccc(C(F)(F)CO)c3)c2cc1C1CCS(=O)(=O)CC1` [Compound 239, (R)-4-(4-((1-(3-(1,1-difluoro-2-hydroxyethyl)phenyl)ethyl)amino)-7-methoxy-2-methylpyrido[2,3-d]pyrimidin-6-yl)tetrahydro-2H-thiopyran 1,1-dioxide], for which the 50% inhibitory concentration (IC50) was less than 100 nM in experiment [1] (setting [4]); less than 50 nM in experiment [1] (setting [5]); no more than 1000 nM in experiment [2] (setting [6]); less than 500 nM in experiment [2] (setting [7]); no more than 1000 nM in experiment [3] (setting [8]); less than 500 nM in experiment [3] (setting [9]).

As for `COc1nc2nc(C)nc(N[C@H](C)c3cccc(C(F)(F)C(C)(C)OC4CNC4)c3F)c2cc1N1CCN(C(C)C)CC1` [Compound 243, (R)-N-(1-(3-(2-(azetidin-3-yloxy)-1,1-difluoro-2-methylpropyl)-2-fluorophenyl)ethyl)-6-(4-isopropylpiperazin-1-yl)-7-methoxy-2-methylpyrido[2,3-d]pyrimidin-4-amine], the IC50 in experiment [1] (setting [4]) was less than 100 nM; in experiment [1] (setting [5]) it was less than 50 nM; in experiment [2] (setting [6]), no more than 1000 nM; in experiment [2] (setting [7]), less than 500 nM; in experiment [3] (setting [8]), no more than 1000 nM; in experiment [3] (setting [9]), less than 500 nM.

By IC50 is commonly meant the concentration at which inhibition is half-maximal.
